In patent US20240400584A1, “COMPOUNDS AND METHODS FOR MODULATING SPLICING” (REMIX THERAPEUTICS INC., priority 2021, published 2024):

Assays:
MYB [1] = experiment: Gene panel canonical junction qPCR assay, MYB CJ mRNA (Table 7); format: cell-based; conditions: Homo sapiens, read-out: MYB CJ mRNA decrease IC50
Description: (§1) Compounds described herein were used to modulate RNA transcript abundance in cells. The expression of a target mRNA was measured by detecting the formation of an exon-exon junction in the canonical transcript (CJ). A compound mediated exon-inclusion event was detected by observing an increase in formation OF A new junction with an alternative exon (AJ). Real-time qPCR assays were used to detect these splicing switches and interrogate the potency of various compounds towards different target Genes. A high-throughput real time quantitative PCR (RT-qPCR) assay was developed to measure these two isoforms of the mRNA (CJ and AJ) for exemplary genes, such as HTT, SMN2, and MYB, together with a control housekeeping gene, GAPDH or GUSB or PPIA, used for normalization. Briefly, the A673 or K562 cell line was treated with various compounds described herein (e.g., compounds of Formula (i)). After treatment, the levels of the HTT, MYB, or SMN2 mRNA targets were determined from each sample of cell lysate by cDNA synthesis followed by qPCR.
(§2) The data analysis was performed by first determining the ΔCt vs the housekeeper gene. This ΔCt was then normalized against the DMSO control (ΔΔCt) and converted to RQ (relative quantification) using the 2^(−ΔΔCt) equation. The RQ were then converted to a percentage response by arbitrarily setting an assay window of 3.5 and 4.0 ΔCt for HTT-CJ and MYB-CJ respectively and an assay window of 9 and 3 ΔCt for HTT-AJ and MYB-AJ in 96 well format (50,000 K562 cells/well and 15,000 A673 cells per well) and an assay window of 3 and 4 ΔCt for HTT-CJ and MYB-CJ respectively and an assay window of 5 and 3 ΔCt for HTT-AJ and MYB-AJ respectively in 384 well format (8,000 K562 cells/well example). […] The percentage response was then fitted to the 4 parametric logistic equation to evaluate the concentration dependence of compound treatment. The increase in AJ mRNA is reported as AC50 (compound concentration having 50% response in AJ increase) while the decrease in CJ mRNA levels is reported as IC50 (compound concentration having 50% response in CJ decrease).
(§3) Additional studies were carried out for a larger panel of genes using the protocol provided above. The junction between flanking upstream and downstream exons was used to design canonical junction qPCR assays. At least one of the forward primer, reverse primer or the CY5-labeled 5′ nuclease probe (with 3′ quencher such as ZEN/Iowa Black FQ) was designed to overlap with the exon junction to capture the CJ mRNA transcript. BLAST was used to confirm the specificity of the probeset and parameters such as melting temperature, GC content, amplicon size, and primer dimer formation are considered during their design. Data for the decrease in CJ mRNA levels for four exemplary genes (HTT, SMN2, MYB, and Target C) analyzed in this panel are reported as IC50 (compound concentration having 50% response in CJ decrease).

HTT [2] = experiment: Gene panel canonical junction qPCR assay, HTT CJ mRNA (Table 7); format: cell-based, human; conditions: Homo sapiens, read-out: HTT CJ mRNA decrease IC50
Description: as §1, §2, §3

SMN2 = experiment: Gene panel canonical junction qPCR assay, SMN2 CJ mRNA (Table 7); format: cell-based; conditions: Homo sapiens, read-out: SMN2 CJ mRNA decrease IC50
Description: as §1, §2, §3

HTT [3] = experiment: RT-qPCR splicing assay, HTT AJ/CJ mRNA; format: cell-based, human; conditions: Homo sapiens, 24 h, A673 or K562 cells; for IC50: decrease in canonical junction mRNA; for AC50: increase in alternative junction mRNA
Description: as §1
(§4) The A673 cell line was cultured in DMEM with 10% FBS. Cells were diluted with full growth media and plated in a 96-well plate (15,000 cells in 100 ul media per well). The plate was incubated at 37° C. with 5% CO2 for 24 hours to allow cells to adhere. An 11-point 3-fold serial dilution of the compounds was made in DMSO then diluted in media in an intermediate plate. Compounds were transferred from the intermediate plate to the cell plate with the top dose at a final concentration of 10 uM in the well. Final DMSO concentration was kept at or below 0.25%. The cell plate was returned to the incubator at 37° C. with 5% CO2 for an additional 24 hours.
(§5) The K562 cell line was cultured in IMDM with 10% FBS. For K562, cells were diluted with full growth media and plated in either a 96-well plate (50,000 cells in 50 uL media per well) or a 384-well plate (8,000-40,000 cells in 45 uL media per well). An 11-point 3-fold serial dilution of the compounds were made in DMSO then diluted in media in an intermediate plate. Compound was transferred from the intermediate plate to the cell plate with the top dose at a final concentration of 10 uM in the well. Final DMSO concentration was kept at or below 0.25%. Final volume was 100 uL for 96-well plate and 50 uL for 384-well plate. The cell plate was then placed in an incubator at 37° C. with 5% CO2 for 24 hours.
(§6) The cells were then gently washed with 50 uL-100 uL Cold Pbs before proceeding to addition of lysis buffer. 30 uL-50 μL of room temperature lysis buffer with DNAse I (and optionally RNAsin) was added to each well. Cells were shaken/mixed thoroughly at room temperature for 5-10 minutes for lysis to take place and then 3 uL-5 μL of room temperature stop solution was added and wells were shaken/mixed again. After 2-5 minutes, the cell lysate plate was transferred to ice for RT-qPCR reaction setup. The lysates could also be frozen at −80° C. for later use.
(§7) In some cases, a direct lysis buffer was used. an appropriate volume of 3× lysis buffer (10 mM tRis, 150 mM NaCl, 1.5%-2.5% Igepal and 0.1-1 U/uL RNAsin, pH 7.4) was directly added to either K562 or A673 cells in media and mixed by pipetting 3 times. The plates were then incubated at room temperature with shaking/rocking for 20-50 minutes to allow for lysis to take place. After this time, the cell lysate plate was transferred to ice to set up for the RT-qPCR reactions. The lysates could also be frozen at −80° C. for later use.
(§8) To set up 10 uL RT-QpcR reactions, cell lysates were transferred to 384-well qPCR plates containing the master mix according to the table below. The plates were sealed, gently vortexed, and spun down before the run. The volumes were adjusted accordingly in some instances where the reaction was carried in 20 µL. The table below summarizes the components of the RT-qPCR reactions:
(§9) The RT-qPCR reaction was performed using a QuantStudio (ThermoFisher) under the following fast cycling conditions. […]

Target C = experiment: Gene panel canonical junction qPCR assay, Target C CJ mRNA (Table 7); format: cell-based, human; conditions: Homo sapiens, read-out: Target C CJ mRNA decrease IC50
Description: as §1, §2, §3

MYB [4] = experiment: RT-qPCR splicing assay, MYB AJ/CJ mRNA; format: cell-based; conditions: Homo sapiens, A673 or K562 cells, 24 hours; for IC50: decrease in canonical junction mRNA; for AC50: increase in alternative junction mRNA
Description: as §1, §4, §5, §6, §7, §8, §9

| Compound | IC50 (MYB [1]) | IC50 (HTT [2]) | IC50 (SMN2) | IC50 (HTT [3]) | AC50 (HTT [3]) | IC50 (Target C) | IC50 (MYB [4]) | AC50 (MYB [4]) |
| --- | --- | --- | --- | --- | --- | --- | --- | --- |
| c1cnn(-c2ccc3c(c2)COc2nc(N4CCC5(CCNCC5)C4)ccc2-3)c1 [Compound 182] | > 10 µM | > 10 µM | > 10 µM | > 10 µM | > 10 µM | > 10 µM | > 10 µM | > 10 µM |
| c1cnn(-c2ccc3c(c2)COc2nc(N4CCC5(CCCNC5)C4)ccc2-3)c1 (stereo not drawn) [Compound 183] | 1 to 10 µM | > 10 µM | 0.1 to 1 µM | > 10 µM | > 10 µM | > 10 µM | 1 to 10 µM | > 10 µM |
| c1cnn(-c2ccc3c(c2)COc2nc(N4CCC5(CCNC5)CC4)ccc2-3)c1 [Compound 184] | 1 to 10 µM | 1 to 10 µM | 1 to 10 µM | 1 to 10 µM | 1 to 10 µM | 1 to 10 µM | 1 to 10 µM | 1 to 10 µM |
| c1cnn(-c2ccc3c(c2)COc2nc(N4C[C@H]5CNC[C@H]5C4)ccc2-3)c1 [Compound 185] | > 10 µM | > 10 µM | 1 to 10 µM | > 10 µM | > 10 µM | > 10 µM | > 10 µM | 1 to 10 µM |
| CC1(C)CC(Oc2ccc3c(n2)OCc2cc(-n4cccn4)ccc2-3)CCN1 (stereo not drawn) [Compound 186] | 1 to 10 µM | 1 to 10 µM | 0.1 to 1 µM | 1 to 10 µM | 1 to 10 µM | > 10 µM | 1 to 10 µM | > 10 µM |
| c1cnn(-c2ccc3c(c2)COc2nc(OC4CCNCC4)ccc2-3)c1 [Compound 187] | > 10 µM | 1 to 10 µM | 1 to 10 µM | 1 to 10 µM | > 10 µM | > 10 µM | > 10 µM | > 10 µM |
| c1cnn(-c2ccc3c(c2)COc2nc(O[C@@H]4C[C@H]5CC[C@@H](C4)N5)ccc2-3)c1 [Compound 188] | 1 to 10 µM | 0.1 to 1 µM | 0.1 to 1 µM | 0.1 to 1 µM | 0.1 to 1 µM | 1 to 10 µM | 1 to 10 µM | 1 to 10 µM |
| CCN(c1ccc2c(n1)OCc1cc(-n3cccn3)ccc1-2)C1CC(C)(C)NC(C)(C)C1 [Compound 189] | 1 to 10 µM | > 10 µM | 1 to 10 µM | > 10 µM | 1 to 10 µM | > 10 µM | 1 to 10 µM | > 10 µM |
| c1cnn(-c2ccc3c(c2)COc2nc(N[C@@H]4C[C@H]5CCC[C@@H](C4)N5)ccc2-3)c1 [Compound 190] | 0.1 to 1 µM | < 0.1 µM | < 0.1 µM | < 0.1 µM | 0.1 to 1 µM | 0.1 to 1 µM | 0.1 to 1 µM | 0.1 to 1 µM |
| CCN(c1ccc2c(n1)OCc1cc(-n3cccn3)ccc1-2)[C@@H]1C[C@H]2CC[C@@H](C1)N2 [Compound 191] | 1 to 10 µM | 0.1 to 1 µM | 0.1 to 1 µM | 0.1 to 1 µM | 1 to 10 µM | 1 to 10 µM | 1 to 10 µM | > 10 µM |
| c1cnn(-c2ccc3c(c2)COc2nc(N4CCCC5(CCNC5)C4)ccc2-3)c1 (stereo not drawn) [Compound 192] | > 10 µM | > 10 µM | > 10 µM | > 10 µM | > 10 µM | > 10 µM | > 10 µM | > 10 µM |
| c1cnn(-c2ccc3c(c2)COc2nc(S[C@@H]4C[C@H]5CC[C@@H](C4)N5)ccc2-3)c1 [Compound 193] | 1 to 10 µM | 1 to 10 µM | > 10 µM | > 10 µM | > 10 µM | > 10 µM | 1 to 10 µM | > 10 µM |
| CN1C[C@@H]2[C@H](C1)[C@H]2N(C)c1ccc2c(n1)OCc1cc(-n3cccn3)ccc1-2 [Compound 196] | > 10 µM | > 10 µM | > 10 µM | > 10 µM | > 10 µM | > 10 µM | > 10 µM | > 10 µM |
| CN(C)[C@H]1[C@@H]2CN(c3ccc4c(n3)OCc3cc(-n5cccn5)ccc3-4)C[C@@H]21 [Compound 197] | > 10 µM | 1 to 10 µM | > 10 µM | 1 to 10 µM | > 10 µM | > 10 µM | > 10 µM | 1 to 10 µM |
| c1cnn(-c2ccc3c(c2)COc2nc(O[C@@H]4C[C@H]5CCC[C@@H](C4)N5)ccc2-3)c1 [Compound 198] | 0.1 to 1 µM | 0.1 to 1 µM | 0.1 to 1 µM | 0.1 to 1 µM | 0.1 to 1 µM | 1 to 10 µM | 0.1 to 1 µM | 0.1 to 1 µM |
| [2H]C([2H])([2H])N(c1ccc2c(n1)OCc1cc(-n3cccn3)ccc1-2)C1CC(C)(C)NC(C)(C)C1 [Compound 199] | > 10 µM | 1 to 10 µM | 1 to 10 µM | 1 to 10 µM | 1 to 10 µM | > 10 µM | > 10 µM | > 10 µM |
| [2H]C([2H])([2H])N(c1ccc2c(n1)OCc1cc(-n3cccn3)ccc1-2)C1C[C@H]2CCC[C@@H](C1)N2 (stereo partly drawn) [Compound 200] | 0.1 to 1 µM | < 0.1 µM | < 0.1 µM | < 0.1 µM | < 0.1 µM | 0.1 to 1 µM | 0.1 to 1 µM | 0.1 to 1 µM |
| [2H]C([2H])([2H])N(c1ccc2c(n1)OCc1cc(-n3cccn3)ccc1-2)[C@@H]1C[C@H]2CC[C@@H](C1)N2 [Compound 201] | 0.1 to 1 µM | 0.1 to 1 µM | < 0.1 µM | 0.1 to 1 µM | 0.1 to 1 µM | 0.1 to 1 µM | 0.1 to 1 µM | 1 to 10 µM |
